“Also recorded” adds a separate entry of the source. Where two headings read alike, the source gives them in different places.
How the values were obtained:
[1] = Moisture sorption/desorption (moisture balance); type: physicochemical; conditions: for weight loss at 5% RH: sample not dried prior to analysis; for hygroscopicity: based on moisture sorption/desorption data
Protocol: The moisture sorption/desorption data was collected on a VT SGA-100 moisture balance system. […] The sample was not dried prior to analysis. Equilibrium criteria used for analysis was less than 0.0100% weight change in 5 minutes with a maximum equilibration time of 3 hours if the weight criterion was not met. Data was not corrected for the initial moisture content of the samples.

[2] = Interconversion studies of Forms A and B; type: physicochemical
Description: The interconversion of Forms A and B were preformed using ethyl acetate and 95% isopropanol:water. […] The interconversions in ethyl acetate yielded a mixture of Forms A and B, which is probably due to the low solublility of the materials.

physchem = conditions: thermodynamic from solid, SOLUBILITY (mg/mL), ambient temperature
[3] = ambient temperature, sodium salt
[4] = listed as Sample lot I Form A, sodium salt
[5] = listed as Sample lot III Form A, sodium salt
[6] = listed as Sample lot IV Form A, sodium salt

Cc1cc2c(cc1CC(=O)c1sccc1S(=O)(=O)Nc1onc(C)c1Cl)OCO2.[Na] [Amorphous, N-(4-chloro-3-methyl-5-isoxazolyl)-2-[2-methyl-4,5-(methylenedioxy)phenylacetyl]thiophene-3-sulfonamide, sodium salt]
weight loss at 5% RH [1]: 1.4% weight loss at 5% RH, | total weight gain at 95% RH ([1]; listed as amorphous form, sodium salt): 22% | total weight gain at 95% RH ([1]; sodium salt): 22.0.% total weight gain at 95% RH | hygroscopicity [1]: highly hygroscopic

Cc1cc2c(cc1CC(=O)c1sccc1S(=O)(=O)[N-]c1onc(C)c1Cl)OCO2.[Na+] [Form A, N-(4-chloro-3-methyl-5-isoxazolyl)-2-[2-methyl-4,5-(methylenedioxy)phenylacetyl]thiophene-3-sulfonamide, sodium salt]
relative thermodynamic stability of the forms ([2]; interconversion in 95% isopropanol:water): more thermodynamically stable form | relative stability of the forms ([2]; interconversion studies in ethyl acetate (so in the source)): most stable form | relative thermodynamic stability of the forms ([2]; interconversion studies, solvent not stated): more thermodynamically stable form | weight loss at 5% RH [1, 4]: 0.18% weight loss at 5% RH, | weight loss at 5% RH [1, 5]: 0.04% weight loss at 5% RH, | weight loss at 5% RH [1, 6]: 0.05% weight loss at 5% RH, | weight loss at 5% RH ([1]; sodium salt): minimal weight | total weight gain at 95% RH [1, 4]: 1.48% total weight gain at 95% RH | total weight gain at 95% RH [1, 5]: 1.08% total weight gain at 95% RH | total weight gain at 95% RH [1, 6]: 1.10% total weight gain at 95% RH | total weight gain at 95% RH ([1]; sodium salt): less than 1.5% | hygroscopicity ([1]; sodium salt): non-hygroscopic up to 75% RH; also recorded: nonhygroscopic | solubility (physchem; organic solvent or mixture, N,N-dimethylformamide (DMF)): 228 mg/mL | solubility (physchem; organic solvent or mixture, acetone): 96 mg/mL | solubility (physchem; organic solvent or mixture, acetonitrile (ACN)): 25 mg/mL | solubility (physchem; organic solvent or mixture, chloroform): < 3 mg/mL | solubility (physchem; organic solvent or mixture, dichloromethane): < 3 mg/mL | solubility (physchem; organic solvent or mixture, ethanol (EtOH)): 60 mg/mL | solubility (physchem; organic solvent or mixture, ethyl acetate (EtOAc)): 6 mg/mL | solubility (physchem; organic solvent or mixture, hexanes): < 8 mg/mL | solubility (physchem; organic solvent or mixture, isopropanol (IPA)): < 4 mg/mL | solubility (physchem; organic solvent or mixture, methanol (MeOH)): 160 mg/mL | solubility (physchem; organic solvent or mixture, methyl ethyl ketone (MEK)): 34 mg/mL | solubility (physchem; organic solvent or mixture, methyl t-butyl ether (MTBE)): < 3 mg/mL | solubility (physchem; organic solvent or mixture, tetrahydrofuran (THF)): 86 mg/mL | solubility (physchem; organic solvent or mixture, toluene): < 7 mg/mL | solubility (physchem; water): 48 mg/mL | solubility ([3]; N,N-dimethylformamide (DMF)): >228 mg/mL | solubility ([3]; chloroform): <3 mg/mL | solubility ([3]; dichloromethane): <3 mg/mL | solubility ([3]; methyl t-butyl ether (MTBE)): <3 mg/mL

Cc1cc2c(cc1CC(=O)c1sccc1S(=O)(=O)[N-]c1onc(C)c1Cl)OCO2.[Na+] [Form B, N-(4-chloro-3-methyl-5-isoxazolyl)-2-[2-methyl-4,5-(methylenedioxy)phenylacetyl]thiophene-3-sulfonamide, sodium salt]
weight loss at 5% RH ([1]; sodium salt): 0.13% weight loss at 5% RH, | weight change during the moisture sorption/desorption experiment ([1]; 5 to 95% RH sorption, 95 to 5% RH desorption): loses and gains minimal weight | total weight gain at 95% RH ([1]; sodium salt): 0.98% total weight gain at 95% RH

Reference: patent US20090104265A1, “Polymorphs of N-(4-chloro-3-methyl-5-isoxazolyl) 2-[2-methyl-4,5-(methylenedioxy)phenylacetyl] thiophene-3-sulfonamide, sodium salt” (priority 2006, published 2009)
